Experimental data: patent publication US20240058464A1 (Fortis Therapeutics, Inc., priority 2021, published 2024)

Tested on: CD46 expression
Test: CD46 expression by RNA-sequencing in unpaired pre-treatment and post-treatment tumor biopsies
Format: in vivo, human
[1] = Bladder Cancer, post minus pre, unpaired biopsies
[2] = Bladder Cancer, post vs pre, unpaired biopsies
[3] = Bladder Cancer, post-treatment biopsies, log2-transformed RNA-seq counts
[4] = Breast Cancer, Post minus Pre, unpaired biopsies, log2-transformed counts
[5] = Breast Cancer, post- vs pre-treatment unpaired biopsies
[6] = Breast Cancer, post-treatment biopsies, unpaired, RNA-seq log2-transformed normalized counts
[7] = Melanoma, Post minus Pre, unpaired biopsies, log2-transformed counts
[8] = Melanoma, post- vs pre-treatment unpaired biopsies
[9] = Melanoma, post-treatment biopsies, unpaired, RNA-seq log2-transformed normalized counts
[10] = Colorectal Cancer, Post minus Pre, unpaired biopsies, log2-transformed counts
[11] = Colorectal Cancer, post- vs pre-treatment unpaired biopsies
[12] = Colorectal Cancer, post-treatment biopsies, unpaired, RNA-seq log2-transformed normalized counts
[13] = Sarcoma, Post minus Pre, unpaired biopsies, log2-transformed counts
[14] = Sarcoma, post- vs pre-treatment unpaired biopsies
[15] = Sarcoma, post-treatment biopsies, unpaired, RNA-seq log2-transformed normalized counts

## CN(Cc1cnc2nc(N)nc(N)c2n1)c1ccc(C(=O)N[C@@H](CCC(=O)O)C(=O)O)cc1 [methotrexate]
[1]
  CD46 expression diff: −0.25
[2]
  CD46 expression Percentage change: −4.0%
[3]
  CD46 expression Post: 5.88
[4]
  CD46 expression diff: 0.07
[5]
  CD46 expression Percentage change: 1.2%
[6]
  CD46 expression Post: 6.32

## CS(=O)(=O)CCNCc1ccc(-c2ccc3ncnc(Nc4ccc(OCc5cccc(F)c5)c(Cl)c4)c3c2)o1 [lapatinib]
[4]
  CD46 expression diff: −0.08
[5]
  CD46 expression Percentage change: −1.2%
[6]
  CD46 expression Post: 6.22

## CC(=O)Nc1cccc(-n2c(=O)n(C3CC3)c(=O)c3c(Nc4ccc(I)cc4F)n(C)c(=O)c(C)c32)c1 [trametinib]
[7]
  CD46 expression diff: 0.08
[8]
  CD46 expression Percentage change: 1.4%
[9]
  CD46 expression Post: 5.39

## CNC(=O)c1ccc(N2C(=S)N(c3cnc(C#N)c(C(F)(F)F)c3)C(=O)C23CCC3)cc1F [apalutamide]
Prostate Cancer, Post minus Pre, unpaired biopsies, log2-transformed counts
  CD46 expression diff: −0.03
Prostate Cancer, post- vs pre-treatment unpaired biopsies
  CD46 expression Percentage change: −0.5%
Prostate Cancer, post-treatment biopsies, unpaired, RNA-seq log2-transformed normalized counts
  CD46 expression Post: 6.14

## NC(=O)c1cccc2cn(-c3ccc([C@@H]4CCCNC4)cc3)nc12 [niraparib]
In vivo
  CD46 expression Percentage change: 0.1%
  CD46 expression Post: 5.72
  CD46 expression diff: 0.00

## N[C@@H](Cc1cc(I)c(Oc2cc(I)c(O)c(I)c2)c(I)c1)C(=O)O [levothyroxine]
Non-Small Cell Lung Cancer, post minus pre, unpaired biopsies
  CD46 expression diff: −0.17
Non-Small Cell Lung Cancer, post vs pre, unpaired biopsies
  CD46 expression Percentage change: −2.9%
Non-Small Cell Lung Cancer, post-treatment biopsies, log2-transformed RNA-seq counts
  CD46 expression Post: 5.87

## CN(C)C(=N)N=C(N)N [metformin]
[10]
  CD46 expression diff: 0.27
[11]
  CD46 expression Percentage change: 4.2%
[12]
  CD46 expression Post: 6.70
Non-Small Cell Lung Cancer, Post minus Pre, unpaired biopsies, log2-transformed counts
  CD46 expression diff: 0.03
Non-Small Cell Lung Cancer, post- vs pre-treatment unpaired biopsies
  CD46 expression Percentage change: 0.5%
Non-Small Cell Lung Cancer, post-treatment biopsies, unpaired, RNA-seq log2-transformed normalized counts
  CD46 expression Post: 6.07

## olaratumab
[13]
  CD46 expression diff: 0.11
[14]
  CD46 expression Percentage change: 2.3%
[15]
  CD46 expression Post: 5.10

## denosumab
[4]
  CD46 expression diff: 0.40
[5]
  CD46 expression Percentage change: 6.2%
[6]
  CD46 expression Post: 6.82

## Cc1ccc(Nc2nccc(N(C)c3ccc4c(C)n(C)nc4c3)n2)cc1S(N)(=O)=O [pazopanib]
Clear Cell Renal Cell Carcinoma, post minus pre, unpaired biopsies
  CD46 expression diff: −0.22
Clear Cell Renal Cell Carcinoma, post vs pre, unpaired biopsies
  CD46 expression Percentage change: −4.0%
Clear Cell Renal Cell Carcinoma, post-treatment biopsies, log2-transformed RNA-seq counts
  CD46 expression Post: 5.37
[13]
  CD46 expression diff: −0.10
[14]
  CD46 expression Percentage change: −1.9%
[15]
  CD46 expression Post: 5.03

## CC[C@]1(O)C[C@@H]2CN(CCc3c([nH]c4ccccc34)[C@@](C(=O)OC)(c3cc4c(cc3OC)N(C)[C@H]3[C@@](O)(C(=O)OC)[C@H](OC(C)=O)[C@]5(CC)C=CCN6CC[C@]43[C@@H]65)C2)C1 [vinblastine]
[1]
  CD46 expression diff: −0.24
[2]
  CD46 expression Percentage change: −3.9%
[3]
  CD46 expression Post: 5.89

## CO[C@@]12[C@H](COC(N)=O)C3=C(C(=O)C(C)=C(N)C3=O)N1C[C@@H]1N[C@@H]12 [mitomycin]
[10]
  CD46 expression diff: 0.23
[11]
  CD46 expression Percentage change: 3.9%
[12]
  CD46 expression Post: 5.93

## CC(C)(C)c1nc(-c2cccc(NS(=O)(=O)c3c(F)cccc3F)c2F)c(-c2ccnc(N)n2)s1 [dabrafenib]
[7]
  CD46 expression diff: 0.11
[8]
  CD46 expression Percentage change: 2.0%
[9]
  CD46 expression Post: 5.42
